Measurements published in US6426339B1, “Formulations and methods for providing prolonged local anesthesia” (Children's Medical Center Corporation, priority 1996, dated 2002).
“Also recorded” adds a separate entry of the source.

Tests used:
sciatic nerve [1] = experiment: Sensory block: additives in the injection fluid with bupivacaine microspheres (Table 2); assay type: in vivo, rat; settings: for sensory blockade latency: with bupivacaine microspheres, FIG. 5A
Description: Sensory anesthesia was measured by the time required for each rat to withdraw its hind paw from a 56° C. plate (IITC Life Science Instruments, Model 35-D, Woodland Hills, Calif.). The rats were allowed to adjust to their surroundings in a quiet room for at least 30 minutes before testing. The rats were held with a cloth gently. wrapped above their waist to restrain the upper extremities and obstruct vision. The rats were positioned to stand with one hind paw on a hot plate and the other on a room temperature plate. With a computer data collection system to (Apple IIe with a footpad switch), latency to withdraw each hind paw to the hot plate was recorded by alternating paws and allowing at least fifteen seconds of recovery between each measurement. If no withdrawal occurred from the hot plate within 12 seconds, the trial was terminated to prevent injury and the termination time was recorded. Testing ended after five measurements per side, the high and low points were disregarded, and the mean of the remaining three points was calculated for each side. Animals were handled in accordance with institutional, state and federal guidelines.
(§1) At least five rats were used in each test.
(§2) Sensory blockade or anesthesia effect was examined using art-known techniques. In addition, motor tests were performed at each time point to examined each rat's ability to hop and to place weight on it's hind leg by art-known techniques. Each leg was tested three times, and the latency of the contralateral leg was tested to provide a control. The animals were handled and cared for according to institution, state, and federal regulations.

sciatic nerve [2] = experiment: Motor block: additives in the injection fluid with bupivacaine microspheres (Table 2); assay type: in vivo, rat
Excerpt: The rats were behaviorally tested for sensory and motor anesthesia in a quiet observation room. Testing was only performed in rats showing appropriate baseline hot plate latencies after at least-one week of testing. In all testing conditions, the experimenter recording the behavior was unaware of the side containing the local anesthetic. To assess motor anesthesia, a 4-point scale based on visual observation was devised: (1) normal appearance, (2) intact dorsiflexion of foot with an impaired ability to splay toes when elevated by the tail, (3) toes and foot remained plantar flexed with no splaying ability, and (4) loss of dorsiflexion, flexion of toes, and impairment of gait. For graphing clarity, partial motor anesthesia equals a score of 2 and dense motor anesthesia is a score of either 3 or 4.
as §1, §2

[3] = 0.05% in the suspending medium
Description: Male Sprague-Dawley Charles River Rats, weighing between 200 and 350 grams were used to test the ability of each additive to prolong blockade or anesthesia effect. 150 mg of bupivacaine per kg of rat and a known concentration of each of the additives were placed in 0.6 mls of injection vehicle (5 g/L medium molecular weight carboxymethylcellulose, 1 g/L Tween 80). If the additive was a solid, it was dissolved in ethanol and aliquots which varied in concentrations from 0.0220 mg/kg of rat, and added to the injection fluid. If the additive was in liquid form, it was added directly to the injection fluid. The microsphere/additive mixture was vortexed (Scientific Industries Vortex Genie®) at maximum speed for three minutes prior to injection. The injection was performed while the rats were under general anesthetic, by locating the greater trochanter and injecting slightly below and proximal to it. At least five rats were used in each test.

sciatic nerve [4] = experiment: Sciatic blockade by liquid bupivacaine and/or dexamethasone in solution (Table 1); assay type: in vivo, rat
Description: as §1, §2

sciatic nerve [5] = experiment: Restoration of waning sensory anesthesia by dexamethasone (hot plate latency); assay type: in vivo, rat; settings: 0.032 mg/kg injected at the original site 6 hours after bupivacaine microspheres
Description: Sensory anesthesia was measured by the time required for each rat to withdraw its hind paw from a 56° C. plate (IITC Life Science Instruments, Model 35-D, Woodland Hills, Calif.). The rats were allowed to adjust to their surroundings in a quiet room for at least 30 minutes before testing. The rats were held with a cloth gently. wrapped above their waist to restrain the upper extremities and obstruct vision. The rats were positioned to stand with one hind paw on a hot plate and the other on a room temperature plate. With a computer data collection system to (Apple IIe with a footpad switch), latency to withdraw each hind paw to the hot plate was recorded by alternating paws and allowing at least fifteen seconds of recovery between each measurement. If no withdrawal occurred from the hot plate within 12 seconds, the trial was terminated to prevent injury and the termination time was recorded. Testing ended after five measurements per side, the high and low points were disregarded, and the mean of the remaining three points was calculated for each side. […]
Sensory latency was determined by the hot plate foot withdrawal method described above. […]

[6] = additive 0.032 mg/Kg rat with bupivacaine microspheres
[7] = additive 0.25 mg/Kg rat with bupivacaine microspheres
[8] = additive 0.8 mg/Kg rat with bupivacaine microspheres
[9] = additive 2.0 mg/Kg rat with bupivacaine microspheres
[10] = in the suspending medium with bupivacaine microspheres
[11] = additive 0.1 mg/Kg rat with bupivacaine microspheres
[12] = additive 3.1 mg/Kg rat with bupivacaine microspheres
[13] = additive 0.01 mg/Kg rat with bupivacaine microspheres
[14] = additive 0.125 mg/Kg rat with bupivacaine microspheres
[15] = additive 1.25 mg/Kg rat with bupivacaine microspheres
[16] = additive 10 mg/Kg rat with bupivacaine microspheres
[17] = additive 6.3 mg/Kg rat with bupivacaine microspheres
[18] = additive 2.1 mg/Kg rat with bupivacaine microspheres
[19] = additive 20 mg/Kg rat with bupivacaine microspheres
[20] = additive 1.0 mg/Kg rat with bupivacaine microspheres
[21] = additive 1.7 mg/Kg rat with bupivacaine microspheres
[22] = additive 0.02 mg/Kg rat with bupivacaine microspheres
[23] = additive 0.14 mg/Kg rat with bupivacaine microspheres

In the case of `C[C@H]1C[C@H]2[C@@H]3CCC4=CC(=O)C=C[C@]4(C)[C@@]3(F)[C@@H](O)C[C@]2(C)[C@@]1(O)C(=O)CO` [Betamethasone, betamethasone], the Sensory block (sciatic nerve [1]; [6]) is reported as 19.0 ± 4.0 h, the Sensory block (sciatic nerve [1]; [7]) is reported as 36.0 ± 10.0 h and the Sensory block (sciatic nerve [1]; [8]) is reported as 46.0 ± 7.0 h. For the same molecule, the Sensory block (sciatic nerve [1]; [9]) was 44.0 ± 13.0 h, the “duration of prolonged blockade or local anesthesia effect” value (sciatic nerve [1]; [10]) was “up to 45 hours” and the Motor block (sciatic nerve [2]; [6]) was 15.0 ± 4.0 h. It also gave a Motor block (sciatic nerve [2]; [7]) of 38.0 ± 11.0 h, a Motor block (sciatic nerve [2]; [8]) of 39.0 ± 5.0 h and a Motor block (sciatic nerve [2]; [9]) of 39.0 ± 11.0 h.
In the case of `CC(C)CCC[C@@H](C)[C@H]1CC[C@H]2[C@@H]3CC=C4C[C@@H](O)CC[C@]4(C)[C@H]3CC[C@]12C` [Cholesterol], the “prolongation of blockade compared with bupivacaine microspheres (in words)” value (sciatic nerve [1]; 0.3 mg/kg incorporated into bupivacaine loaded microspheres) is reported as “did not result in a prolongation of blockade or anesthesia effect”, the Sensory block (sciatic nerve [1]; [11]) is reported as 4.0 ± 0.4 h and the Sensory block (sciatic nerve [1]; [12]) is reported as 8.0 ± 3.0 h. It also gave a Motor block (sciatic nerve [2]; [11]) of 4.0 ± 1.0 h and a Motor block (sciatic nerve [2]; [12]) of 5.0 ± 1.0 h.
With `CNC[C@H](O)c1ccc(O)c(O)c1` [Epinephrine] the Sensory block (sciatic nerve [1]; [13]) was 12.0 ± 6.0 h, the Sensory block (sciatic nerve [1]; [11]) was 14.0 ± 5.0 h and the “degree of prolongation of blockade (in words)” value (“degree” for short) (sciatic nerve [1]; [10]) was “did not substantially prolong”. The Motor block (sciatic nerve [2]; [13]) was 12.0 ± 4.0 h, the Motor block (sciatic nerve [2]; [11]) was 11.0 ± 3.0 h and the “systemic toxicity (in words)” value [3] was “considerable systemic toxicity, but no deaths”.
For `C[C@]12CC[C@@H]3c4ccc(O)cc4CC[C@H]3[C@@H]1CC[C@@H]2O` [Estradiol], the Sensory block (sciatic nerve [1]; [14]) was 11.0 ± 6.0 h, the Sensory block (sciatic nerve [1]; [15]) was 8.0 ± 1.0 h and the “degree” value (sciatic nerve [1]; [10]) was “no blockade-prolonging effect”. It also gave a Motor block (sciatic nerve [2]; [14]) of 12.0 ± 6.0 h and a Motor block (sciatic nerve [2]; [15]) of 9.0 ± 2.0 h.
`C[C@]12CCC(=O)C=C1CC[C@@H]1[C@@H]2[C@@H](O)C[C@@]2(C)[C@H]1CC[C@]2(O)C(=O)CO` [Hydrocortisone, hydrocortisone] gave a Sensory block (sciatic nerve [1]; [11]) of 10.0 ± 3.0 h, a Sensory block (sciatic nerve [1]; [15]) of 15.0 ± 5.0 h and a Sensory block (sciatic nerve [1]; [16]) of 36.0 ± 10.0 h. For the same molecule, the “degree” value (sciatic nerve [1]; [10]) was “mild, but statistically significant prolongation; also recorded: cannot be made as effective as dexamethasone”, the Motor block (sciatic nerve [2]; [11]) was 10.0 ± 3.0 h and the Motor block (sciatic nerve [2]; [15]) was 16.0 ± 3.0 h. The Motor block (sciatic nerve [2]; [16]) was 31.0 ± 8.0 h.
In the case of `O=C(c1ccccc1)c1ccc2n1CCC2C(=O)O` (stereo not shown) [Ketoralac], the Sensory block (sciatic nerve [1]; [9]) is reported as 6.0 ± 0.7 h, the Sensory block (sciatic nerve [1]; [17]) is reported as 8.0 ± 2.0 h and the Motor block (sciatic nerve [2]; [9]) is reported as 7.0 ± 0.4 h. For the same molecule, the Motor block (sciatic nerve [2]; [17]) was 10.0 ± 4.0 h.
For `C[C@H]1C[C@@H]2[C@H]([C@@H](O)C[C@@]3(C)[C@H]2CC[C@]3(O)C(=O)CO)[C@@]2(C)C=CC(=O)C=C12` [Methylprednisolone, methylprednisolone], the Sensory block (sciatic nerve [1]; [11]) was 20.0 ± 5.0 h, the Sensory block (sciatic nerve [1]; [18]) was 28.0 ± 6.0 h and the Sensory block (sciatic nerve [1]; [19]) was 34.0 ± 11.0 h. For the same molecule, the Motor block (sciatic nerve [2]; [11]) was 13.0 ± 4.0 h, the Motor block (sciatic nerve [2]; [18]) was 28.0 ± 5.0 h and the Motor block (sciatic nerve [2]; [19]) was 33.0 ± 9.0 h.
`CC(=O)[C@H]1CC[C@H]2[C@@H]3CCC4=CC(=O)CC[C@]4(C)[C@H]3CC[C@]12C` [Progesterone] showed a Sensory block (sciatic nerve [1]; [9]) of 8.0 ± 1.0 h and a Motor block (sciatic nerve [2]; [9]) of 6.0 ± 1.0 h.
In the case of `C[C@]12CC[C@H]3[C@@H](CCC4=CC(=O)CC[C@@]43C)[C@@H]1CC[C@@H]2O` [Testosterone], the Sensory block (sciatic nerve [1]; [20]) is reported as 7.0 ± 2.0 h, the Sensory block (sciatic nerve [1]; [21]) is reported as 15.0 ± 5.0 h and the “degree” value (sciatic nerve [1]; [10]) is reported as “mild prolongation”. The Motor block (sciatic nerve [2]; [20]) was 6.0 ± 1.0 h and the Motor block (sciatic nerve [2]; [21]) was 15.0 ± 5.0 h.
For `CCCCN1CCCCC1C(=O)Nc1c(C)cccc1C` (stereo not shown) [bupivacaine], the “LENGTH OF Blockade or anesthesia effect” value (sciatic nerve [4]; bupivacaine 3 mg/kg rat, no dexamethasone) was 2 to 3 h and the “effect on duration of blockade obtained using bupivacaine microspheres (in words)” value (sciatic nerve [1]; addition of 0.005% (w/w) to the suspending medium) was “did not result in a prolongation”.
For `C[C@@H]1C[C@H]2[C@@H]3CCC4=CC(=O)C=C[C@]4(C)[C@@]3(F)[C@@H](O)C[C@]2(C)[C@@]1(O)C(=O)CO` [dexamethasone], the “LENGTH OF Blockade or anesthesia effect” value (sciatic nerve [4]; bupivacaine 3 mg/kg rat plus dexamethasone 0.16 mg/kg rat) was 2 to 3 h, the “LENGTH OF Blockade or anesthesia effect” value (sciatic nerve [4]; bupivacaine 3 mg/kg rat plus dexamethasone 1.6 mg/kg rat) was 2 to 3 h and the “LENGTH OF Blockade or anesthesia effect” value (sciatic nerve [4]; dexamethasone 0.16 mg/kg rat, no bupivacaine) was 0 h. The Sensory block (sciatic nerve [1]; [22]) was 17.0 ± 11.0 h, the Sensory block (sciatic nerve [1]; [23]) was 47.0 ± 8.0 h and the Sensory block (sciatic nerve [1]; [9]) was 36.0 ± 19.0 h. The sensory blockade latency (sciatic nerve [1]; after 50 hours) was “about 7 seconds”, the sensory blockade latency (sciatic nerve [1]; after 100 hours) was “about 2.5 seconds” and the sensory blockade latency (sciatic nerve [1]; initial) was 12 s. For the same molecule, the Motor block (sciatic nerve [2]; [22]) was 19.0 ± 8.0 h, the Motor block (sciatic nerve [2]; [23]) was 38.0 ± 5.0 h and the Motor block (sciatic nerve [2]; [9]) was 34.0 ± 12.0 h. The “hot plate sensory latency after restoration” value (sciatic nerve [5]) was “about 11 sec”.
